# In patent US12540297B2, “Microfluidic device for cerebrovascular simulation and high-efficiency blood-brain barrier simulation system comprising same” (CELLARTGEN INC., priority 2018, dated 2026):
# Tests used:
# Cryptococcus neoformans = assay: Multi-organ hNVU chip fungal neuroaffinity with inositol supplementation; format: cell-based; settings: 200 mg/ml inositol added only to liver unit, 1 day after inoculation
# Protocol: NSC, PC and EC were seeded in the same manner as described above for fabrication of the hNVU chip system, and 8×10^6 Huh-7 cells/ml encapsulated in a BMEM hydrogel were seeded in a central channel of a liver unit of the multi-organ hNVU chip. CFW-labeled fungal cells were injected through an upper reservoir of the liver unit so that the fungi were not affected by factors secreted from a brain unit. Simultaneously with fungal inoculation, inositol (200 mg/ml, Duchefa, RV Haarlem, Netherlands) was added only to a lower channel of the liver unit.
# [1] = test system: EC layer of BBB in hNVU chip (NSC-EC-PC/flow group); assay: BBB permeability response to TNF-α exposure in hNVU chip; format: cell-based, human; settings: 20 ng/ml TNF-α
# Protocol: In order to evaluate BBB permeability, the hNVU chip was placed horizontally on the substrate, and both EC and medium channels were filled with PBS to match the surface levels and homogenize the pressure applied to a 3D matrix. […] Vascular permeability was evaluated by the flow rate of the solute across the EC barrier according to the reference method. […] Vascular barrier permeability (Pv) was induced by using the mean intensity of blood vessels (Iv) and tissues (NSC gel, IT) at two different time points t1 and t2, according to Equation 6 calculated by Image J software. Here, Δt, V and Asurface are approximated by the mean morphology of the EC layer in the hNVU chip in the 3D confocal image and represent the time between two images in a selected region of interest, the NSC gel volume, and the surface area of the EC layer, respectively.
compound,measurement,setting,value
O[C@H]1[C@H](O)[C@@H](O)[C@H](O)[C@@H](O)[C@H]1O [inositol],fungal invasion into the liver unit through the EC barrier,Cryptococcus neoformans,did not increase fungal invasion
same,level of neuroaffinity of C. neoformans,Cryptococcus neoformans,reduced the level of neuroaffinity
TNF-α,increase of permeability of the EC layer to 70 kDa FITC-dextran,[1],about 2.8 times
